Laboratory results: patent publication US7851445B2, “Angiogenic heparin-binding epitopes, peptide amphiphiles, self-assembled compositions and related methods of use” (Northwestern University, priority 2005, dated 2010)
Where a SMILES comes first, the peptide text is derived from it. The star is where a group is joined. Palmitoyl = CCCCCCCCCCCCCCCC(=O)*

Legend:
Solubility in water = type: physicochemical
[1] = Isothermal titration calorimetry of heparin into HBPA solution; conditions: ITC, heparin titrated into HBPA in water, fit for a single type of binding site
Source text: Isothermal titration calorimetry was used to titrate increments of heparin independently into both the HBPAs and measured the heat released upon binding as a function of the molar ratio. The data obtained was integrated and fitted to a nonlinear function as previously described (Fromm, J. R., et al, “Differences in the Interaction of Heparin with Arginine and Lysine and the Importance of These Basic-Amino-Acids in the Binding of Heparin to Acidic Fibroblast Growth-Factor” Arch. Biochem. Biophys. 323 (1997) 279) to obtain an association constant of 10^7 in both cases (see FIGS. 3E and 3F). Despite similarity in their binding constants, the binding interaction of HBPA-1 and HBPA-2 were energetically very different. […] Such results can be explained with reference to their respective structures. HBPA-1 has hydrophobic residues on the periphery of its peptide chain and the increase in entropy is possibly due to displacement of solvent water molecules from these residues upon heparin interaction.
Characterization of the self-assembly. […] The images were analyzed using the Leica LCS imaging software. […] A frequency sweep experiment was performed at 3% strain with a ten-minute wait time (both determined by independently performing an amplitude sweep and a time strain experiment) to obtain 17 data points between angular frequencies of 0.1 to 10 rad/s. […]

| solubility in water (Solubility in water) | SMILES | association constant [1] |
| --- | --- | --- |
| readily soluble in water | CCCCCCCCCCCCCCCC(=O)N[C@@H](C)C(=O)N[C@@H](C)C(=O)N[C@@H](C)C(=O)N[C@@H](C)C(=O)NCC(=O)NCC(=O)NCC(=O)N[C@@H](CC(C)C)C(=O)N[C@@H](CCCNC(=N)N)C(=O)N[C@@H](CCCCN)C(=O)N[C@@H](CCCCN)C(=O)N[C@@H](CC(C)C)C(=O)NCC(=O)N[C@@H](CCCCN)C(=O)N[C@@H](C)C(N)=O [HBPA-1] (Palmitoyl-AAAAGGGLRKKLGKA-NH2) | 10^7 |
| readily soluble in water | CCCCCCCCCCCCCCCC(=O)N[C@@H](C)C(=O)N[C@@H](C)C(=O)N[C@@H](C)C(=O)N[C@@H](C)C(=O)NCC(=O)NCC(=O)NCC(=O)N[C@@H](CC(C)C)C(=O)N[C@@H](CC(C)C)C(=O)NCC(=O)N[C@@H](C)C(=O)N[C@@H](CCCNC(=N)N)C(=O)N[C@@H](CCCCN)C(=O)N[C@@H](CCCCN)C(=O)N[C@@H](CCCCN)C(N)=O [HBPA-2] (Palmitoyl-AAAAGGGLLGARKKK-NH2) | 10^7 |
